Drawing on patent publication US8703961B2, “Thiazole derivatives for the treatment of diseases such as cancer” (Merck Patent GmbH, priority 2009, dated 2014), this text covers IC50 and remaining activity for five compounds.

What all share (assay): filter binding kinase assay
What all share (assay type): biochemical

For one assay, the target named is T1, CHEK2 (Homo sapiens, UniProt O96017).
T1 construct: purchased
Particulars: derived from % inhibition at 1 μM. How it is done: (§1) All kinase assays were carried out using the Multidrop 384 from Thermo-Fisher at room temperature in a total assay volume of 25.5 μl. 15 μl of an enzyme mix comprising enzyme and substrate in buffer are added to the test batch comprising either 0.5 μl of test substance, DMSO control or empty container. Test substances are pre-incubated in the presence of the enzyme and substrate for 5 minutes before the reaction is initiated by addition of 10 μl of ATP (concentration kinase-dependent of […]). The reaction is terminated by addition of 5 μl of orthophosphoric acid (50 mM). The test containers are then transferred onto P81 Unifilter plates by means of a “Packard Harvester” and dried in air. The dry Unifilter plates are sealed after the addition of MicroScint O, and the radioactivity is determined in a Packard Topcount NXT.

In a further assay the target is T2, RPS6KA3 (Homo sapiens, UniProt P51812).
T2 construct: purchased
T2 sequence (P51812 whole entry, species assumed): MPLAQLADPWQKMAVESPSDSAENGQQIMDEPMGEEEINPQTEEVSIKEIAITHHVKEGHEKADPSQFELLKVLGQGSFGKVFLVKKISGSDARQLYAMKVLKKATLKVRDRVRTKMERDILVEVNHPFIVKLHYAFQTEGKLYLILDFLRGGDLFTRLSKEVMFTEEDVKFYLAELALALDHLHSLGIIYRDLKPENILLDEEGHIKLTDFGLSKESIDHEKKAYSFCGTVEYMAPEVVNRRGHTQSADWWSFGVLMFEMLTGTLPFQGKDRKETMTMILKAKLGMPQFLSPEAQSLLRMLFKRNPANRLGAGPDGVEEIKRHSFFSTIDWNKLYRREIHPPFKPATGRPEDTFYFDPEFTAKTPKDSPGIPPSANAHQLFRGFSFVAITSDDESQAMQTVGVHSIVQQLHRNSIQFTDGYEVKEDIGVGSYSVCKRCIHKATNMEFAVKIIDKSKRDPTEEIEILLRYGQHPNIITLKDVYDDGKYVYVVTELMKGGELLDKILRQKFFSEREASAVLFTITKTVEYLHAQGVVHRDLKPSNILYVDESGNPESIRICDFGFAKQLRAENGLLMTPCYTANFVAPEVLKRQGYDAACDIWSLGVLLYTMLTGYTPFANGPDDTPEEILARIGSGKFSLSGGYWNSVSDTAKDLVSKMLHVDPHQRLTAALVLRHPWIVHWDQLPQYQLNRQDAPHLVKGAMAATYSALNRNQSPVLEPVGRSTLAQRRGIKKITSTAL
The following applies: derived from % inhibition at 1 μM. How it is done:
as §1

The next assay addresses T3, IGF1R (Homo sapiens, UniProt P08069).
T3 construct: purchased
The following applies: derived from % inhibition at 1 μM. The method, then: as §1

A further assay has as its target T4, HIPK3 (Homo sapiens, UniProt Q9H422).
T4 construct: purchased
Particulars: derived from % inhibition at 1 μM. The method, then: as §1

The target of another assay is T5, AURKB (Homo sapiens, UniProt Q96GD4).
T5 construct: purchased
T5 sequence (Q96GD4 whole entry, species assumed): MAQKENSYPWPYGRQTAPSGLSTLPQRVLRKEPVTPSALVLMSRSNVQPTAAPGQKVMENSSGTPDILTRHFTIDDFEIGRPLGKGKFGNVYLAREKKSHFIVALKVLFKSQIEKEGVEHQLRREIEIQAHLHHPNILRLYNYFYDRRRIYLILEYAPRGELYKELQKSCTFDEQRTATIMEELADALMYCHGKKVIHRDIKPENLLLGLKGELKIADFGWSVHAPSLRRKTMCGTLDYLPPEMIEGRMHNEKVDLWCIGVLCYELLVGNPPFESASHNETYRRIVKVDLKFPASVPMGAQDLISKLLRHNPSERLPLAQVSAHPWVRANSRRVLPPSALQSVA
Particulars: derived from % inhibition at 1 μM. The method, then:
as §1

Another assay addresses T6, EEF2K (Homo sapiens, UniProt O00418).
T6 construct: purchased
The following applies: derived from % inhibition at 1 μM. How it is done: as §1

The target in another assay is T7, MARK4 (Homo sapiens, UniProt Q96L34).
T7 construct: purchased
T7 sequence (Q96L34 1-752): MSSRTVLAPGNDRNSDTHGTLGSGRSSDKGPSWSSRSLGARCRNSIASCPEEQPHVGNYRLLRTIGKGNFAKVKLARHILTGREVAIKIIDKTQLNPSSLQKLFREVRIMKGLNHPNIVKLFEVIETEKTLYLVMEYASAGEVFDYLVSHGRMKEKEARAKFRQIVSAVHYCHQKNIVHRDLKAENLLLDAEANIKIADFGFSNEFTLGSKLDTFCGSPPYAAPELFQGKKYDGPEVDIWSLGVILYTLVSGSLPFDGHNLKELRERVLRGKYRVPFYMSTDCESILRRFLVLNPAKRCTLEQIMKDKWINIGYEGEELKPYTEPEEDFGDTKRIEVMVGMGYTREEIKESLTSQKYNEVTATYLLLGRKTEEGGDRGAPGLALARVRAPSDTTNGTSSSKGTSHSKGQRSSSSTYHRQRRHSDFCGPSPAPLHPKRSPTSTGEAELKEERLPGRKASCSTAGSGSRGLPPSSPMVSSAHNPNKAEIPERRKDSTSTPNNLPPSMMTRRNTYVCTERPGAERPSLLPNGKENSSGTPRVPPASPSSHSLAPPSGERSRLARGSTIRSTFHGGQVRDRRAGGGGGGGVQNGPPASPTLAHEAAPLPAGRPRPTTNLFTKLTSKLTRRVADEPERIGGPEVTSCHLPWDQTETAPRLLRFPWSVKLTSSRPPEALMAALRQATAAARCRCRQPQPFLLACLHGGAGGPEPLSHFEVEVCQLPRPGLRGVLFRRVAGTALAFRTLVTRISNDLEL
The following applies: derived from % inhibition at 1 μM. How it is done: as §1

A further assay has as its target T8, MAP2K1 (MKK1) (Homo sapiens, UniProt Q02750).
T8 construct: purchased
The following applies: for IC50: derived from % inhibition at 1 μM. The method, then:
as §1

For another assay, the target named is T9, AKT2 (Homo sapiens, UniProt P31751).
T9 construct: purchased
T9 sequence (P31751 whole entry, species assumed): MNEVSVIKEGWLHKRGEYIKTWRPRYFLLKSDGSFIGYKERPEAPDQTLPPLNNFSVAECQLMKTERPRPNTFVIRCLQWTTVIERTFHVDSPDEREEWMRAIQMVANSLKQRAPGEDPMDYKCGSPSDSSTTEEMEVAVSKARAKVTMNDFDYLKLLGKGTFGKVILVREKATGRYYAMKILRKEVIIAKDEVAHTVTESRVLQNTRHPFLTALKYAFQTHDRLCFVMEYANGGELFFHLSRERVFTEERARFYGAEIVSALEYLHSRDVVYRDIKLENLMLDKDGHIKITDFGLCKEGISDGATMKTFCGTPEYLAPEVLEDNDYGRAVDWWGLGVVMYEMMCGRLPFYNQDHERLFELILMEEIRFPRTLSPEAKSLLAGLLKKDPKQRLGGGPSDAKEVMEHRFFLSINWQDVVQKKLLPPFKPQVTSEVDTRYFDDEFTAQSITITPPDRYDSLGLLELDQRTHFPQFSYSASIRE
The following applies: derived from % inhibition at 1 μM. How it is done: as §1

A further assay addresses T10, RPS6KA5 (Homo sapiens, UniProt O75582).
T10 construct: purchased
Particulars: derived from % inhibition at 1 μM. How it is done:
as §1

For the next assay, the target named is T11, PRKCZ (Homo sapiens, UniProt Q05513).
T11 construct: purchased
T11 sequence (Q05513 1-592): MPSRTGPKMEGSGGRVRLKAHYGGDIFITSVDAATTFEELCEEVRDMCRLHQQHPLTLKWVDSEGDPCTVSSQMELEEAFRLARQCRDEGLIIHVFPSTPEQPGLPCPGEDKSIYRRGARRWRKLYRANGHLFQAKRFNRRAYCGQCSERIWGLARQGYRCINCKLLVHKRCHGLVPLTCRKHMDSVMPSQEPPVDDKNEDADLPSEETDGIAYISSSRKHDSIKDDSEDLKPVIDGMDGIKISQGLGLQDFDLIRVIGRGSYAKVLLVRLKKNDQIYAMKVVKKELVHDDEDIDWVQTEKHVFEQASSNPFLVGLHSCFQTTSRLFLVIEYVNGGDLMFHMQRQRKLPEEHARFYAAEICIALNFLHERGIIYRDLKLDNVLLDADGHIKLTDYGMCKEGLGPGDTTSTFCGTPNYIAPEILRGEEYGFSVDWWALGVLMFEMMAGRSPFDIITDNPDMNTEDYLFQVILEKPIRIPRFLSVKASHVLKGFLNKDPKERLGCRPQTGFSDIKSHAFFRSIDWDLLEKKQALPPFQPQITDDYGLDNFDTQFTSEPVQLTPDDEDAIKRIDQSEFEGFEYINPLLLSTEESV
The following applies: derived from % inhibition at 1 μM. The method, then:
as §1

Some results are limits rather than exact numbers.

The term IC50 denotes the concentration that inhibits the measured activity by half. Low readings indicate greater potency, high ones weaker potency.

T8 sequence (Q02750 whole entry, species assumed): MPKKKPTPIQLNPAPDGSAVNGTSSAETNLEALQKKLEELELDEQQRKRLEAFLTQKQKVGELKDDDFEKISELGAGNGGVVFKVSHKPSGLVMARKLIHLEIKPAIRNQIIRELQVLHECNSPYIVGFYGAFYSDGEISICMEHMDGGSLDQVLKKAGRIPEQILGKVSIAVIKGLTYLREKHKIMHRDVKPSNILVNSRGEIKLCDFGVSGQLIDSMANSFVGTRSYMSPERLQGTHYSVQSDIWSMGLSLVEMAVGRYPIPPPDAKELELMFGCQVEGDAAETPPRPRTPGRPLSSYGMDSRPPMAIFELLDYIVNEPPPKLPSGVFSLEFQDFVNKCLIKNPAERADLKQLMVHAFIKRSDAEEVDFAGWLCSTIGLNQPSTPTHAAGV
T10 sequence (O75582 whole entry, species assumed): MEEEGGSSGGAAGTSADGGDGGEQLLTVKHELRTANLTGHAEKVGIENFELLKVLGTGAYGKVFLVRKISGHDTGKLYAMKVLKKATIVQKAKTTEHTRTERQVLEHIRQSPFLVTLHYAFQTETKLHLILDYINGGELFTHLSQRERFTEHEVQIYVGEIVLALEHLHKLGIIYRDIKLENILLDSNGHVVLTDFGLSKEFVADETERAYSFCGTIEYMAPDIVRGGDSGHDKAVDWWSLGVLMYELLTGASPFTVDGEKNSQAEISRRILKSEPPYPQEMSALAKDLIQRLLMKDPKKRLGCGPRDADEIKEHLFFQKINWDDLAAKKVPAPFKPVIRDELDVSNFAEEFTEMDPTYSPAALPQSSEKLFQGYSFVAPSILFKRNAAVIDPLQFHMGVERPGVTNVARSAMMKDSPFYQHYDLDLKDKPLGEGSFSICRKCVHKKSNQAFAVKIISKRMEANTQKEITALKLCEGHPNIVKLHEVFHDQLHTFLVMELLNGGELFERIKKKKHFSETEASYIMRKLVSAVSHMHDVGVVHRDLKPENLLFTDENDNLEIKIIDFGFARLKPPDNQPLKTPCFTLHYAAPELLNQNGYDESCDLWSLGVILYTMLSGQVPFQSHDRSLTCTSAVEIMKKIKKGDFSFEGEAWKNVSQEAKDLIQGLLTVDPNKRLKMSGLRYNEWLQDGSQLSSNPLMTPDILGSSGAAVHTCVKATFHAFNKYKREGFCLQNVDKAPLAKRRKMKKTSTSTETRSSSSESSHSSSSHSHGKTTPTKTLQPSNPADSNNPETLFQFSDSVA
T3 sequence (P08069 31-1367, species assumed): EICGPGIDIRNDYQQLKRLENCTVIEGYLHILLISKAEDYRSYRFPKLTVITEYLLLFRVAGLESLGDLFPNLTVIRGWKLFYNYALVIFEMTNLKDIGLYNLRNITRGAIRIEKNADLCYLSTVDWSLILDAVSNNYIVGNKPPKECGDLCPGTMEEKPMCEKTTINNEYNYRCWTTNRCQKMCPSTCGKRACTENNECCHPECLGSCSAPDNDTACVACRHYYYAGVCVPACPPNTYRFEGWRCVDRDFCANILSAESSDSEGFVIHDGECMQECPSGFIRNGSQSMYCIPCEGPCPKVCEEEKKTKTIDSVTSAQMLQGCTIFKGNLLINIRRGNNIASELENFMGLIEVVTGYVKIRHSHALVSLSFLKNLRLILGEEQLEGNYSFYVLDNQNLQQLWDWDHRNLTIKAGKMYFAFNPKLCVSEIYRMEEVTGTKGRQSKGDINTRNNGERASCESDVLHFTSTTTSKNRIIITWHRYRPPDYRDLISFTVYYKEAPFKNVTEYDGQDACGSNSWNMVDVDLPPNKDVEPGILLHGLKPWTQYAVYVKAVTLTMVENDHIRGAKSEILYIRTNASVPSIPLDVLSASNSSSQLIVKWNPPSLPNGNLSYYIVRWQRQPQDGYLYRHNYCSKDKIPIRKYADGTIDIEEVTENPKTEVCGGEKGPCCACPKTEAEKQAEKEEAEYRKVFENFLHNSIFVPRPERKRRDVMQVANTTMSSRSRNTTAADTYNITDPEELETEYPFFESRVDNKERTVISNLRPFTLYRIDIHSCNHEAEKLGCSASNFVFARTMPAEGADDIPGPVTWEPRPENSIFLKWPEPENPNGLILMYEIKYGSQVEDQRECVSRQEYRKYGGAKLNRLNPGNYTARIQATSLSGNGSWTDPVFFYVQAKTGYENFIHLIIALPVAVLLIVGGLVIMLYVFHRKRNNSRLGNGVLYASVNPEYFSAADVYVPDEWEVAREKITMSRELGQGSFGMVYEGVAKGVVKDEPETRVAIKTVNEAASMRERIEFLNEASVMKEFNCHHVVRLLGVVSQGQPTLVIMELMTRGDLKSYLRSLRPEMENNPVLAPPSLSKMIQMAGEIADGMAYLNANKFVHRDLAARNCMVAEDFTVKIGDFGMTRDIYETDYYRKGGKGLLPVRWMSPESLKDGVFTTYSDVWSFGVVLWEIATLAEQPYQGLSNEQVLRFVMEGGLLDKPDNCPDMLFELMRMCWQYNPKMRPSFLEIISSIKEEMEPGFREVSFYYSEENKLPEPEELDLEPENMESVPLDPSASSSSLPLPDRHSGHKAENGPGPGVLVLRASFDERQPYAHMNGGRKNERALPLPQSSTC
T1 sequence (O96017 whole entry, species assumed): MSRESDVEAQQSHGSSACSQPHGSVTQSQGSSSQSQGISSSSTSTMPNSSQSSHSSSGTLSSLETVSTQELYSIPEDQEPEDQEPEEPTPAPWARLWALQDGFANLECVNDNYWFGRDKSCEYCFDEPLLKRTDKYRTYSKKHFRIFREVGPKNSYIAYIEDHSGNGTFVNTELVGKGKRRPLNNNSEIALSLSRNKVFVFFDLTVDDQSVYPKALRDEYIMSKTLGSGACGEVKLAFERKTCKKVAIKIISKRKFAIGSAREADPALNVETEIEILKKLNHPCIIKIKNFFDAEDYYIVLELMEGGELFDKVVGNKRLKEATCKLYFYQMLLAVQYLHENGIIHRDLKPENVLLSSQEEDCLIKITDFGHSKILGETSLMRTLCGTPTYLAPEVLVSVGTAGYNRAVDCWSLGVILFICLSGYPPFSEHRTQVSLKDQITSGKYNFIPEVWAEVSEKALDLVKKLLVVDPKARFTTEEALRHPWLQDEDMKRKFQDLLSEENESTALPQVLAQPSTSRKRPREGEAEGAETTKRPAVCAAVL

`c1ccc(Cc2c[nH]c3ncsc23)cc1` [Compound A7, 6-benzyl-4H-pyrrolo[2,3-d]thiazole]: the IC50 on CHEK2 was more than 1 µM; at RPS6KA3 it was 1 to 10 µM; on IGF1R, 10 to 100 µM; at HIPK3 it was 1 to 10 µM; at AURKB, 1 to 10 µM; on EEF2K it was 10 to 100 µM. Moreover, the IC50 was more than 1 µM at MARK4; 1 to 10 µM at MAP2K1 (MKK1); more than 1 µM on AKT2; 1 to 10 µM at RPS6KA5; more than 1 µM at PRKCZ.
Take `Nc1ncsc1C#Cc1cnc2[nH]ccc2c1` [Compound A22, 5-(1H-pyrrolo[2,3-b]pyridin-5-ylethynyl)thiazol-4-ylamine]: the concentration for half-maximal inhibition (IC50) on CHEK2 was more than 1 µM; on RPS6KA3, 10 to 100 µM; at IGF1R it was 1 to 10 µM; on HIPK3 it was 1 to 10 µM; on AURKB it was 10 to 100 µM; on EEF2K, 10 to 100 µM. In addition, the IC50 was 10 to 100 µM at MARK4; 0.01 to 1 µM on MAP2K1 (MKK1); more than 1 µM at AKT2; 10 to 100 µM at RPS6KA5; more than 1 µM at PRKCZ. Besides, the remaining activity at 1 µM on MAP2K1 (MKK1) (read-out: residual kinase activity MKK1) was found to be 43%.
As for `CC(C)(C)OC(=O)Nc1nc(-c2ccncc2)sc1C#CCN1CCOCC1` [Compound A25, tert-butyl[5-(3-morpholin-4-ylprop-1-ynyl)-2-pyridin-4-ylthiazol-4-yl]-carbamate], the IC50 on CHEK2 is more than 1 µM; at RPS6KA3 it was more than 1 µM; on IGF1R, more than 1 µM; on HIPK3, 10 to 100 µM; at AURKB, more than 1 µM; at EEF2K it was more than 1 µM. Further, the IC50 was 10 to 100 µM on MARK4; 1 to 10 µM on MAP2K1 (MKK1); 1 to 10 µM on AKT2; 10 to 100 µM on RPS6KA5; 10 to 100 µM on PRKCZ.
As to `CC(C)(C)OC(=O)Nc1ncsc1C#CCN1C(=O)c2ccccc2C1=O` [Compound A26, tert-butyl{5-[3-(1,3-dioxo-1,3-dihydroisoindol-2-yl)prop-1-ynyl]-thiazol-4-yl}carbamate], the IC50 at CHEK2 is more than 1 µM; at RPS6KA3, more than 1 µM; on IGF1R, more than 1 µM; at HIPK3, 10 to 100 µM; at AURKB, more than 1 µM; at EEF2K it was 10 to 100 µM. For the same compound, the IC50 on MARK4 is more than 1 µM; at MAP2K1 (MKK1) it was 1 to 10 µM; at AKT2, more than 1 µM; at RPS6KA5 it was more than 1 µM; at PRKCZ it was 10 to 100 µM.
Regarding `Nc1ncsc1C#Cc1cccc(O)c1` [Compound A27, 3-(4-aminothiazol-5-ylethynyl)phenol], the IC50 at CHEK2 was 10 to 100 µM; at RPS6KA3, 1 to 10 µM; at IGF1R, more than 1 µM; on HIPK3 it was 1 to 10 µM; at AURKB, 10 to 100 µM; at EEF2K, 1 to 10 µM. The IC50 was 1 to 10 µM at MARK4; more than 1 µM on MAP2K1 (MKK1); 1 to 10 µM at AKT2; 10 to 100 µM on RPS6KA5; more than 1 µM on PRKCZ.
